# In patent US7626026B2, “Pyrrolo-indole and pyrrolo-quinoline derivatives as prodrugs for tumour treatment” (University of Bradford, priority 2001, dated 2009):
# Marks after values point to notes of the source that are not given here.
# Test system: Chinese Hamster Ovary (CHO) cell
# Assay: MTT cytotoxicity in CHO cells, with and without activation by NADPH-supplemented rat liver microsomes
# Assay type: cell-based
# Settings: for IC50: Cricetulus griseus, CHO, cells incubated 24 hours, MTT, mean±sd for three experiments
# Experimental: Test compound (synthesised in example 3) activation by CYP enzymes was carried out using NADPH supplemented rat liver microsomes; Incubation mixtures comprised microsomal protein (1 mg/ml), reduced-nicotinamide adenine dinucleotide phosphate (NADPH, 10 mM) and phosphate buffer (pH7.4, 100 mM). Test compound (0.01-100 μM final concentration) in DMSO (20 μl) was added to the microsomal incubation mixtures (0.5 ml) and incubated for 60 min at 37C. Control incubates contained test compound and microsomal incubation mixture terminated at 0 time. All incubations were terminated by addition of an equal volume of ice-cold acetonitrile and microfuged for 3 min. Aliquots of the supernatant were added to cells in culture.
# Chinese Hamster Ovary (CHO) cell were grown in MEM supplemented with. 10% dialysed FBS and G418 (400 μg/ml). All cells were seeded at an initial density of 1000 cells/well in 96-well-plates, incubation at 37° C. for 24 hours. Aliquots (0.1 ml) of the test compound/microsomal/acetonitrile supernatnant was then added to the CHO cells. Cells were then incubated for 24 hours at 37° C., 5% CO2. After this time period MTT (50 μl; 2 mg/ml stock solution) was added to each well and cells were incubated for a further 4 hours. During this time period MTT, a hydrogen acceptor tetrazolium salt, is reduced to formazan dye by mitochondrial dehydrogenase of viable cells. The media was aspirated from cells and DMSO (100 μl/well) added to solubilise the coloured formazan dye. Absorbance of the formazan dye in the 96-well-plates was then determined at 550 nm. The effect of microsomal activation by the test compound on the arrest of CHO cell growth could be determined by comparing the IC50 (concentration that inhibited cell growth by 50%) with and without microsomal incubation.
# Effect of compound 3.8 and its metabolism (activation) product on the survival of Chinese hamster ovary cells in culture. Cells were incubated for 24 hours with supernatants from reaction mixtures of compound 3.8 with NADPH fortified rat liver microsomes. […] Values are expressed as the mean±sd for three experiments. […]
structure (smiles),measurement,setting,value
"CCOC(=O)c1cc2c3c(ccc2[nH]1)N(C(=O)c1cc2cc(OC)ccc2[nH]1)CC3CCl (stereo not drawn) [3.8, Ethyl 1-(chloromethyl)-3-((5-methoxy-1H-indol-2-yl)carbonyl)-1,2-dihydro-3H-pyrrolo[3,2-e]indole-7-carboxylate]","AF (activity factor, ratio of IC50 cytotoxicity values obtained for ± activation)","CHO cells, IC50 −activation / IC50 +activation",71.7*
same,IC50,control incubate terminated at 0 time (no microsomal activation),4300 ± 410 nM
same,IC50,supernatant after 60 min incubation at 37C with NADPH-fortified rat liver microsomes,60 ± 20 nM
